Where two headings read alike, the source gives them in different places.
Assays:
MT373 tumors = format: in vivo; details: 75 and 150 mg/kg BID×1 PO
Description: Randomization and Study Setup: Implanted animals were monitored for palpable tumors. Eighteen days post implant the animals with palpable tumors had their tumor sizes determined via digital caliper. Mice were selected and randomized into three treatment groups according to tumor size. Average tumor volume (mm^3) and body weight (g) are described in TABLE 17. Treatment began on the eighteenth day post-implant to facilitate twice daily dosing.
Measurements and Calculation of Tumor Volume: Tumor volume was calculated using the following equation: (longest diameter×shortest diameter^2)/2. Individual tumor volumes and body weight measurements were taken at the final timepoint. The calculation for percent tumor growth inhibition (TGI) is as follows: [1−((Tt−T0/Ct−C0))]×100, where Ct is the mean tumor volume of the vehicle control group at time t, C0 is the mean tumor volume of the vehicle control group at time 0, and T is the mean tumor volume of the treatment group. Tumor regression was determined with the equation [(T0−Tt)/T0]×100 using the same definitions.

[1] = for Plasma Conc. / Tumor Conc.: MT373 tumor-bearing mice
[2] = test system: p53 target genes in MT373 tumors; assay: MT373 syngeneic sarcoma model: p21, MDM2, GDF15 (MIC-1) mRNA RT-qPCR in tumors; format: in vivo, mouse; details: for MDM2 mRNA, Fold Change over Vehicle Control / MIC-1 mRNA, Fold Change over Vehicle Control / p21 mRNA, Fold Change over Vehicle Control: MT373 tumors
Description: Purification of RNA: Frozen tumor samples with the required weight were lysed in Buffer RLT with 10 μL/mL of β-mercaptoethanol using a TissueLyser LT. Total RNA was further purified from the lysate using QIAcube with DNase digestion, and RNA concentration was measured with a NanoDrop 2000 Spectrophotometer.
p21, MDM2, GDF15, and GAPDH Gene Expression: Individual gene expression was analyzed by one-step TaqMan-based real-time RT-qPCR. Purified total RNA was diluted to 2.5 ng/μL in DNase- and RNase-free water, and 10 ng was used for each 20 μL RT-qPCR assay using a LightCycler 96. A QuantiTect Probe RT-PCR Kit was used along with a specific primer/probe set as indicated. LAM-MGB labels were used for genes GAPDH, CDKN1a, MDM2, GDL15, and TRP53. The expression of the reference gene (human GAPDH and/or mouse GAPDH as indicated) in the ratio to the vehicle control was calculated using the ΔCt method with normalization to the total RNA input. The expression of a gene of interest relative to the reference gene was calculated using the ΔCt method, and the expression of a gene of interest relative to the reference gene in the ratio to the vehicle control was calculated using the ΔΔCt method.

CCn1c(C#CCNc2ccccc2)cc2cc(CNC3CCN(C)CC3)ccc21 [Compound 1, 1-Anilino-3-{1-ethyl-5-[(1-methyl-4-piperidylamino)methyl]-1H-indol-2-yl}-2-propyne]
tolerability (MT373 tumors): well tolerated
Plasma Conc. ([1]; 75 mg/kg BIDx1 PO, 8 h): 8375 ng/mL
Tumor Conc. ([1]; 75 mg/kg BIDx1 PO, 8 h): 30853 ng/g
Plasma Conc. ([1]; 75 mg/kg BIDx1 PO, 24 h): 1843 ng/mL
Tumor Conc. ([1]; 75 mg/kg BIDx1 PO, 24 h): 12035 ng/g
Plasma Conc. ([1]; 75 mg/kg BIDx1 PO, 48 h): 40 ng/mL
Tumor Conc. ([1]; 75 mg/kg BIDx1 PO, 48 h): 318 ng/g
Plasma Conc. ([1]; 75 mg/kg BIDx1 PO, 72 h): 0 ng/mL
Tumor Conc. ([1]; 75 mg/kg BIDx1 PO, 72 h): 97 ng/g
Plasma Conc. ([1]; 75 mg/kg BIDx1 PO, 98 h): 0 ng/mL
Tumor Conc. ([1]; 75 mg/kg BIDx1 PO, 98 h): 0 ng/g
plasma concentration ([1]; 75 mg/kg BID×1 PO, 8 h (Cmax)): 8375 ng/mL
plasma concentration ([1]; 75 mg/kg BID×1 PO, 24 h): 1843 ng/mL
Plasma Conc. ([1]; 150 mg/kg BIDx1 PO, 8 h): 11435 ng/mL
Tumor Conc. ([1]; 150 mg/kg BIDx1 PO, 8 h): 57645 ng/g
Plasma Conc. ([1]; 150 mg/kg BIDx1 PO, 24 h): 5986 ng/mL
Tumor Conc. ([1]; 150 mg/kg BIDx1 PO, 24 h): 67778 ng/g
Plasma Conc. ([1]; 150 mg/kg BIDx1 PO, 48 h): 268 ng/mL
Tumor Conc. ([1]; 150 mg/kg BIDx1 PO, 48 h): 2436 ng/g
Plasma Conc. ([1]; 150 mg/kg BIDx1 PO, 72 h): 7 ng/mL
Tumor Conc. ([1]; 150 mg/kg BIDx1 PO, 72 h): 59 ng/g
Plasma Conc. ([1]; 150 mg/kg BIDx1 PO, 98 h): 3 ng/mL
Tumor Conc. ([1]; 150 mg/kg BIDx1 PO, 98 h): 23 ng/g
plasma concentration ([1]; 150 mg/kg BID×1 PO, 8 h (Cmax)): 11435 ng/mL
plasma concentration ([1]; 150 mg/kg BID×1 PO, 24 h): 5986 ng/mL
MDM2 mRNA, Fold Change over Vehicle Control ([2]; 75 mg/kg BIDx1 PO, 8 h): 6.16 fold
MIC-1 mRNA, Fold Change over Vehicle Control ([2]; 75 mg/kg BIDx1 PO, 8 h): 1.74 fold
p21 mRNA, Fold Change over Vehicle Control ([2]; 75 mg/kg BIDx1 PO, 8 h): 5.43 fold
MDM2 mRNA, Fold Change over Vehicle Control ([2]; 75 mg/kg BIDx1 PO, 24 h): 2.44 fold
MIC-1 mRNA, Fold Change over Vehicle Control ([2]; 75 mg/kg BIDx1 PO, 24 h): 1.14 fold
p21 mRNA, Fold Change over Vehicle Control ([2]; 75 mg/kg BIDx1 PO, 24 h): 4.04 fold
MDM2 mRNA, Fold Change over Vehicle Control ([2]; 75 mg/kg BIDx1 PO, 48 h): 1.12 fold
MIC-1 mRNA, Fold Change over Vehicle Control ([2]; 75 mg/kg BIDx1 PO, 48 h): 0.85 fold
p21 mRNA, Fold Change over Vehicle Control ([2]; 75 mg/kg BIDx1 PO, 48 h): 1.43 fold
MDM2 mRNA, Fold Change over Vehicle Control ([2]; 75 mg/kg BIDx1 PO, 72 h): 1.08 fold
MIC-1 mRNA, Fold Change over Vehicle Control ([2]; 75 mg/kg BIDx1 PO, 72 h): 0.65 fold
p21 mRNA, Fold Change over Vehicle Control ([2]; 75 mg/kg BIDx1 PO, 72 h): 1.18 fold
MDM2 mRNA, Fold Change over Vehicle Control ([2]; 75 mg/kg BIDx1 PO, 98 h): 1.11 fold
MIC-1 mRNA, Fold Change over Vehicle Control ([2]; 75 mg/kg BIDx1 PO, 98 h): 1.05 fold
p21 mRNA, Fold Change over Vehicle Control ([2]; 75 mg/kg BIDx1 PO): 0.99 fold
MDM2 mRNA, Fold Change over Vehicle Control ([2]; 75 mg/kg BIDx1 PO, […]): 0.85 fold
MIC-1 mRNA, Fold Change over Vehicle Control ([2]; 75 mg/kg BIDx1 PO, […]): 0.88 fold
p21 mRNA, Fold Change over Vehicle Control ([2]; 75 mg/kg BIDx1 PO, […]): 0.98 fold
MDM2 mRNA increase ([2]; 75 mg/kg BID×1, 8 h): 6.2 fold
p21 mRNA increase ([2]; 75 mg/kg BID×1, 8 h): 5.4 fold
MDM2 mRNA increase ([2]; 75 mg/kg BID×1, 24 h): 2.4 fold
p21 mRNA increase ([2]; 75 mg/kg BID×1, 24 h): 4.0 fold
MDM2 mRNA, Fold Change over Vehicle Control ([2]; 150 mg/kg BIDx1 PO, 8 h): 8.70 fold
MIC-1 mRNA, Fold Change over Vehicle Control ([2]; 150 mg/kg BIDx1 PO, 8 h): 3.07 fold
p21 mRNA, Fold Change over Vehicle Control ([2]; 150 mg/kg BIDx1 PO, 8 h): 6.73 fold
MDM2 mRNA, Fold Change over Vehicle Control ([2]; 150 mg/kg BIDx1 PO, 24 h): 6.88 fold
MIC-1 mRNA, Fold Change over Vehicle Control ([2]; 150 mg/kg BIDx1 PO, 24 h): 2.29 fold
p21 mRNA, Fold Change over Vehicle Control ([2]; 150 mg/kg BIDx1 PO, 24 h): 9.61 fold
MDM2 mRNA, Fold Change over Vehicle Control ([2]; 150 mg/kg BIDx1 PO, 48 h): 1.43 fold
MIC-1 mRNA, Fold Change over Vehicle Control ([2]; 150 mg/kg BIDx1 PO, 48 h): 1.14 fold
p21 mRNA, Fold Change over Vehicle Control ([2]; 150 mg/kg BIDx1 PO, 48 h): 1.87 fold
MDM2 mRNA, Fold Change over Vehicle Control ([2]; 150 mg/kg BIDx1 PO, 72 h): 1.33 fold
MIC-1 mRNA, Fold Change over Vehicle Control ([2]; 150 mg/kg BIDx1 PO, 72 h): 0.93 fold
p21 mRNA, Fold Change over Vehicle Control ([2]; 150 mg/kg BIDx1 PO, 72 h): 1.33 fold
MDM2 mRNA, Fold Change over Vehicle Control ([2]; 150 mg/kg BIDx1 PO, 98 h): 1.12 fold
MIC-1 mRNA, Fold Change over Vehicle Control ([2]; 150 mg/kg BIDx1 PO, 98 h): 0.53 fold
p21 mRNA, Fold Change over Vehicle Control ([2]; 150 mg/kg BIDx1 PO): 1.01 fold
MDM2 mRNA, Fold Change over Vehicle Control ([2]; 150 mg/kg BIDx1 PO, […]): 1.16 fold
MIC-1 mRNA, Fold Change over Vehicle Control ([2]; 150 mg/kg BIDx1 PO, […]): 1.00 fold
p21 mRNA, Fold Change over Vehicle Control ([2]; 150 mg/kg BIDx1 PO, […]): 0.85 fold
MDM2 mRNA increase ([2]; 150 mg/kg BID×1, 8 h): 8.7 fold
MIC-1 mRNA increase ([2]; 150 mg/kg BID×1, 8 h): 3.07 fold
p21 mRNA increase ([2]; 150 mg/kg BID×1, 8 h): 6.7 fold
MDM2 mRNA increase ([2]; 150 mg/kg BID×1, 24 h): 6.9 fold
MIC-1 mRNA increase ([2]; 150 mg/kg BID×1, 24 h): 2.29 fold
p21 mRNA increase ([2]; 150 mg/kg BID×1, 24 h): 9.6 fold
